Laboratory results: US11718618B2, “Substituted pyrido[2,1-a]isoquinolines as VMAT2 inhibitors” (priority 2021, dated 2023)

What was measured:
VMAT2 = details: Scherman et al. 1983; read-out: IC50, inhibition of catecholamine uptake by VMAT2; cited from earlier work
male Wistar rats = test: Conditioned avoidance response (CAR) assay of antipsychotic activity; type: in vivo, rat; details: for Avoidance and escape failures: 0.3 mg/kg, oral, Wistar rats; for ED50: Rattus norvegicus, read-out: ED50, conditioned avoidance response
Method: Animals: Adult male Wistar rats from Envigo (Indianapolis, Ind.) were used in this study. Rats were received at approximately 150 g, assigned unique identification numbers and group housed 2-3 per cage in ventilated cages. All rats were examined, handled, and weighed prior to initiation of the study to assure adequate health and suitability. During the course of the study, 12/12 light/dark cycles were maintained. The RT was maintained between 20° C. and 23° C. with a relative humidity around 50%. Chow and water were provided ad libitum for the duration of the study. All testing was conducted during the light cycle of the rats.
Compound 4-1 (0.03, 0.1, 0.3, and 1 mg/kg) was formulated in 0.25% methyl cellulose and administered orally at a dose volume of 3 mL/kg 120 minutes prior to test.
Compound 4-15 (0.03, 0.1, 0.3, and 1 mg/kg) was formulated in 0.25% methyl cellulose and administered orally at a dose volume of 3 mL/kg 120 minutes prior to test.
In the CAR paradigm, an animal is trained to respond to a conditioned stimulus (auditory and visual) by negative reinforcement (foot shock). Numerous studies have shown that typical and atypical antipsychotic drugs selectively suppress CAR, thus making it an ideal assay to screen potential antipsychotic compounds (Wadenberg & Hicks, Neuroscience and Biobehavioral Reviews, (1999) 23:851-862).
Rats were placed in the CAR two-way shuttle box and the training period of 20 trials ensued. A trial consisted of a 10-sec presentation of an 80 dB white noise followed by a scrambled 0.6 mA foot shock lasting up to 20 sec. The inter-trial interval ranged from 20-60 sec. The rat learned to avoid shock by moving from one compartment to the other when the cue is presented. […] The following measures were captured from the assay:
Avoidance response: If the rat moved from one compartment to the other during the cued-stimulus (CS) presentation. Decreased avoidance responding is the typical signature of an efficacious dose of an antipsychotic.
Avoidance response data were expressed as the number of avoidance responses as well as percent of avoidance responses based on the three baseline responses prior to drug test. Escape failures were expressed as the total number of failures during the test session.
Body weight and avoidance data were analyzed by analysis of variance (ANOVA) followed by Dunnett's post-hoc comparisons when appropriate. Escape failures were analyzed by Kruskal-Wallis nonparametric analysis followed by Dunn's post hoc comparisons when appropriate. Results are reported as mean SEM. An effect was considered statistically significant if p<0.05.

male Sprague-Dawley rats = test: Open-field hypolocomotion / locomotor activity (LMA) assay; type: in vivo; details: Rattus norvegicus, pre-treatment 60 or 120 minutes, beam breaks in 30 min, read-out: ED50, reduction of locomotor activity
Method: The effect of VMAT2 inhibitors on dopamine depletion was measured using the locomotor activity (LMA) assay. Following a pre-treatment time of 60 or 120 minutes, male Sprague-Dawley rats (200-250 g) were placed in a clear cage surrounded by photocell detectors (San Diego Instruments). Rat locomotor activity was detected by breaks in the photocell beams and activity is defined as the number of beam breaks in 30 min. Data was analyzed by one-way analysis of variance (ANOVA; SigmaStat version 3.0.1, SPSS, Chicago, Ill.) followed by the Student Newman Keuls post-hoc test for significance.

[1] = Stability of compounds in human liver microsomes; type: in vitro ADME; details: for CLint scaled at 0.5 μM / half-life at 0.5 μM: both sexes, pH 7.4; for CLint scaled at 0.5 μM: liver microsomes, calculated from HLM half-life, read-out: HLM Scaled Intrinsic Clearance; for CLint scaled at 0.5 μM / Predicted Max. Bioavailability (% F) / HLM Predicted Systemic Clearance: human; for half-life at 0.5 μM: 0.5 μM compound, 0.5 mg/mL human liver microsomes, 37° C., maxed at 420 minutes, read-out: HLM Elimination half-life (t1/2, min); for Predicted Max. Bioavailability (% F): predicted from HLM data; for HLM Predicted Systemic Clearance: scaled from HLM half-life (Obach method)
Summary of the method: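 Compound at 0.5 μM incubated at 37 °C with pooled mixed-gender human liver microsomes (0.5 mg/mL protein) and an NADPH-generating system in pH 7.4 phosphate buffer, sampled 0–60 min. Parent depletion tracked by LC-MS/MS; t1/2 derived from the slope by non-linear regression, with predicted extraction ratio and maximum bioavailability also calculated.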

human VMAT2 = human VMAT2 (Homo sapiens (Human), UniProt Q05940); test: VMAT2 radioligand binding, 3H-dihydrotetrabenazine competition on human platelet homogenate; details: 10 nM 3H-dihydrotetrabenazine, human platelet homogenate, 25° C., 90 minutes; read-out: VMAT2 Ki
Summary of the method: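 Human platelet homogenate (30 μg membrane protein/well) in DPBS with 1 mM EDTA, pH 7.4; twelve test-compound concentrations competed against 10 nM ³H-dihydrotetrabenazine. Incubated 90 min at 25 °C, bound radioligand collected by filtration on PEI-pretreated glass-fibre filters and counted by scintillation; Ki derived.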

[2] = once formed, in patients administered (±)-TBZ; cited from earlier work

Chain of human VMAT2 (Q05940 whole entry): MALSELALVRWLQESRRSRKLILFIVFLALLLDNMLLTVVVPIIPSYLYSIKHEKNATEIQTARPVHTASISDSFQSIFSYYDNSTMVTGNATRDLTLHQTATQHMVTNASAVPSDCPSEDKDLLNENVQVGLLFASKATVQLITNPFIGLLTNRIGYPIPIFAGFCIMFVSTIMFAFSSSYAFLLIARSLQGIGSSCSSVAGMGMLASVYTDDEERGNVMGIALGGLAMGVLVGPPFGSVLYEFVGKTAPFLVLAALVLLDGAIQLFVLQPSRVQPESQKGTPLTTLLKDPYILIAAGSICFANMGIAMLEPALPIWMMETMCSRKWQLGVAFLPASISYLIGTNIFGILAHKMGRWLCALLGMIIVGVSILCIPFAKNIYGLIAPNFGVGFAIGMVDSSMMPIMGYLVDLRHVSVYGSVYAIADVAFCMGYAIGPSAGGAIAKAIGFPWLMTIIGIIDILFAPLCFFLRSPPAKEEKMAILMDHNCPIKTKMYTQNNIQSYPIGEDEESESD

Compound	IC50 (VMAT2) [nM]	Avoidance and escape failures (male Wistar rats)	ED50 (male Wistar rats) [mg/kg]	ED50 (male Sprague-Dawley rats) [mg/kg]	CLint scaled at 0.5 μM [1] [mL/min/kg]	half-life at 0.5 μM [1] [min]	Predicted Max. Bioavailability (% F) [1] [% F]	HLM Predicted Systemic Clearance [1] [mL/min/kg]	Ki (human VMAT2) [nM]	half-life [2]
COc1cc2c(cc1OCC(F)(F)F)CCN1C[C@@H](CC(C)(C)C)[C@H](O)C[C@H]21 [Compound 4-1, (2R,3R,11bR)-3-(2,2-dimethylpropyl)-10-methoxy-9-(2,2,2-trifluoroethoxy)-1H,2H,3H,4H,6H,7H,11bH-pyrido[2,1-a]isoquinolin-2-ol]		reduction in avoidance without significant increase in escape failures	0.55	0.24	≤ 2.97	≥ 420	≥87	≤2.59	2.4	
COc1cc2c(cc1OCCC(F)(F)F)CCN1C[C@@H](CC(C)(C)C)[C@H](O)C[C@H]21 [Compound 4-15, (2R,3R,11bR)-3-(2,2-dimethylpropyl)-10-methoxy-9-(3,3,3-trifluoropropoxy)-1H,2H,3H,4H,6H,7H,11bH-pyrido[2,1-a]isoquinolin-2-ol]		reduction in avoidance without significant increase in escape failures	0.44	0.18	4.05	308	83	3.37	1.1	
COc1cc2c(cc1OC1CC1)CCN1C[C@@H](CC(C)(C)C)[C@H](O)C[C@H]21 [Compound 4-27, (2R,3R,11bR)-9-cyclopropoxy-3-(2,2-dimethylpropyl)-10-methoxy-1H,2H,3H,4H,6H,7H,11bH-pyrido[2,1-a]isoquinolin-2-ol]				0.14	≤ 2.97	≥ 420	≥87	≤2.59	1	
COc1cc2c(cc1OCC1(F)CC1)CCN1C[C@@H](CC(C)(C)C)[C@H](O)C[C@H]21 [Compound 4-31, (2R,3R,11bR)-3-(2,2-dimethylpropyl)-9-[(1-fluorocyclopropyl)methoxy]-10-methoxy-1H,2H,3H,4H,6H,7H,11bH-pyrido[2,1-a]isoquinolin-2-ol]				0.31	≤ 2.97	≥ 420	≥87	≤2.59	1.6	
COc1cc2c(cc1OC[C@H](O)C(F)(F)F)CCN1C[C@@H](CC(C)(C)C)[C@H](O)C[C@H]21 [Compound 4-50, (2R,3R,11bR)-3-(2,2-dimethylpropyl)-10-methoxy-9-[(2S)-3,3,3-trifluoro-2-hydroxypropoxy]-1H,2H,3H,4H,6H,7H,11bH-pyrido[2,1-a]isoquinolin-2-ol]				0.21	≤ 2.97	≥ 420	≥87	≤2.59	1.4	
COc1cc2c(cc1OC[C@@H](C)O)CCN1C[C@@H](CC(C)(C)C)[C@H](O)C[C@H]21 [Compound 4-55, (2R,3R,11bR)-3-(2,2-dimethylpropyl)-9-[(2R)-2-hydroxypropoxy]-10-methoxy-1H,2H,3H,4H,6H,7H,11bH-pyrido[2,1-a]isoquinolin-2-ol]				0.29	≤ 2.97	≥ 420	≥87	≤2.59	4.8	
COc1cc2c(cc1OC)C1CC(O)C(CC(C)C)CN1CC2 (stereo not drawn) [[+]-beta-DHTBZ, 3-isobutyl-9,10-dimethoxy-1,3,4,6,7,11b-hexahydro-2H-pyrido[2,1-a]isoquinolin-2-ol]										approximately 5 hours
